On to `CN(C)CC(c1ccc(OCOC(=O)C(C)(C)C)cc1)C1(O)CCCCC1.O=C(O)/C=C\C(=O)O` (stereo not shown) [Example 5, {4-[2-(Dimethylamino)-1-(1-hydroxycyclohexyl)ethyl]phenoxy}methyl Pivalate Maleate Salt], for which the melting point lay within 112 to 113 °C.

The melting point is the temperature, or range, at which the solid turns liquid.

(Values after patent US6503942B2, “Ethers of O-Desmethyl venlafaxine” (Wyeth, priority 1999, dated 2003).)
